Measurements: US20230115176A1 (Ra Pharmaceuticals, Inc., priority 2019, published 2023)

Columns and labels:
[1] = target: human C5 complement protein (Homo sapiens, UniProt P01031); assay: Surface plasmon resonance (SPR), immobilized human C5, 37° C. (Example 12, Table 21); format: binding; conditions: where a range of compound concentrations were analyzed, the lowest value obtained
Text: (§1) Compound CU0136 is a racemic mixture of Compound CU0186 and CU0187. Numbers in parenthesis following compound numbers indicate alternate enantiomers (as distinguished by retention time during chromatographical separation).

Human C5 = target: T1, Human C5 (Homo sapiens, UniProt P01031); assay: Red blood cell (RBC) hemolysis assay, luminescent (Example 13, Table 22); format: cell-based; conditions: sheep EA cells, […] C5-depleted human serum, 0.5 nM human C5, 1 hour 37° C., luminescence; note: 1.5% C5-depleted human serum
T1 construct: purchased Complement Technology
Text: as §1

Chain of human C5 complement protein (P01031 19-1676): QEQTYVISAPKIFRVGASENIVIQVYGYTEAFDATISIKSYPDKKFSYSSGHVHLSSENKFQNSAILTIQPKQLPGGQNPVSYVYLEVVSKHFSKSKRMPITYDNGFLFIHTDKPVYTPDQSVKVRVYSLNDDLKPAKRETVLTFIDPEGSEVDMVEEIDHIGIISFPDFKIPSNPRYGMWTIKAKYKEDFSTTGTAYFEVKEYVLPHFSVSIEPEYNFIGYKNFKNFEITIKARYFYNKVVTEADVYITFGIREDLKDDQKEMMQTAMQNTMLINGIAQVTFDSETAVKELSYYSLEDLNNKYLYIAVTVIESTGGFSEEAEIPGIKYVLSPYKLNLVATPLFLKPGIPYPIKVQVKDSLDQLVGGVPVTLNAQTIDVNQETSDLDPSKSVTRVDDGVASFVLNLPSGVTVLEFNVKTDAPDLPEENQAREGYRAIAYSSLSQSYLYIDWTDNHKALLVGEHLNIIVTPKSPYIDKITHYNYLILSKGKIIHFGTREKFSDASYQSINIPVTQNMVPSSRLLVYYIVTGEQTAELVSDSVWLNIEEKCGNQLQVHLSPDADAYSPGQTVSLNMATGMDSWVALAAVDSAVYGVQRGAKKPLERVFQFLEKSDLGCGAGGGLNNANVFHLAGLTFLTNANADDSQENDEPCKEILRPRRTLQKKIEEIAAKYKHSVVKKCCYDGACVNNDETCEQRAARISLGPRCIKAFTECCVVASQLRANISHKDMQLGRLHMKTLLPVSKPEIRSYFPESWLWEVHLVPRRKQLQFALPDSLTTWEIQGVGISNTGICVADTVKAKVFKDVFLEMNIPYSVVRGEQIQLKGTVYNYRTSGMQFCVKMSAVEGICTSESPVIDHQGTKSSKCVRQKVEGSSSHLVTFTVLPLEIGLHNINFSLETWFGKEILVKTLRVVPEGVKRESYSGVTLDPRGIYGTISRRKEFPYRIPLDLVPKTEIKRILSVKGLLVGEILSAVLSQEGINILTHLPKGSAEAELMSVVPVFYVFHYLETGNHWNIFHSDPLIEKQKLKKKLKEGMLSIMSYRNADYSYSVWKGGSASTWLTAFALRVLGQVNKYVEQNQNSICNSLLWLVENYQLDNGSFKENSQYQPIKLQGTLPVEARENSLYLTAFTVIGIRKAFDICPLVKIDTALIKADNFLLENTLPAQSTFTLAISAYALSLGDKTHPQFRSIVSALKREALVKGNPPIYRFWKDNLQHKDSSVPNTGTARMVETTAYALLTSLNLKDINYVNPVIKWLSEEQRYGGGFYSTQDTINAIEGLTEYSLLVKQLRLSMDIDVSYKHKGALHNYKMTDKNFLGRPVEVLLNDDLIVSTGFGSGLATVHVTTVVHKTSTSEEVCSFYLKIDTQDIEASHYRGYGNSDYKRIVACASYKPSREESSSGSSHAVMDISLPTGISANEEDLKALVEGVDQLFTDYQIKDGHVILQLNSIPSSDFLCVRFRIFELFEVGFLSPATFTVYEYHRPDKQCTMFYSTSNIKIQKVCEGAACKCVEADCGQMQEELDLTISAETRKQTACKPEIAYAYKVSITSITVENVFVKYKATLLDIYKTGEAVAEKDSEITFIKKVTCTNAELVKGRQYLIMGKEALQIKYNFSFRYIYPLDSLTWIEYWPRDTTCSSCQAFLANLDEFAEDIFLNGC
T1 sequence (P01031 19-1676): as above

SMILES | Kd [1] | IC50 (Human C5)
CCCCCOc1cc(N2CCCN(Cc3cc(F)ccc3Cl)C2=O)ccc1OC [CU0014] | 174 nM | 77.6 nM
CCCCCOc1cc(N2CCN(Cc3cccnc3OC)C2=O)ccc1OC [CU0017] | 188 nM | 106 nM
CCCCCOc1cc(N2CCCN(Cc3cccnc3OC)C2=O)ccc1OC [CU0018] | 27.5 nM | 40.6 nM
CCCCCOc1cc(N2CCCN(Cc3cccc4c3ccn4C3CCN(C)C3=O)C2=O)ccc1OC (centres unmarked) [CU0020] | 3 nM | 17.2 nM
CCCCCOc1cc(N2CCCN(Cc3cccc4c3ccn4CC3(O)CCNCC3)C2=O)ccc1OC [CU0021] | 1.5 nM | 14.5 nM
CCCCCOc1cc(N2CCCN(Cc3cccc4c3ccn4CC3(O)CCN(C)CC3)C2=O)ccc1OC [CU0022] | 2.9 nM | 17.1 nM
CCCCCOc1cc(N2CCCN(Cc3cccc4c3ccn4Cc3nncn3C)C2=O)ccc1OC [CU0024] | 5 nM | 12.9 nM
CCCCCOc1cc(N2CCCN(Cc3cccc4c3ccn4CC(=O)N(C)C)C2=O)ccc1OC [CU0025] | 5 nM | 13.6 nM
COc1ccc(N2CCCN(Cc3cccc4c3ccn4CC(=O)N(C)C)C2=O)cc1OCCCC(C)(F)F [CU0027] | 14 nM | 22.5 nM
CCCCCOc1cc(N2CCCN(Cc3cccc4c3ccn4CC(=O)N3CCNC(=O)C3)C2=O)ccc1OC [CU0028] | 5 nM | 8.9 nM
CCCCCOc1cc(N2CCCN(Cc3cccc4c3ccn4CC(=O)N3CCOCC3)C2=O)ccc1OC [CU0029] | 2.1 nM | 15 nM
CCCCCOc1cc(N2CCCN(Cc3cccc4c3ccn4CC(=O)N3CCOC(C)(C)C3)C2=O)ccc1OC [CU0030] | 1.8 nM | 26.9 nM
CCCCCOc1cc(N2CCCN(Cc3cccc4c3ccn4CC(=O)N3CCOC(COC)C3)C2=O)ccc1OC (centres unmarked) [CU0031] | 6 nM | 15.7 nM
CCCCCOc1cc(N2CCCN(Cc3ccnc4[nH]ccc34)C2=O)ccc1OC [CU0032] | 47.5 nM | 51.8 nM
CCCCCOc1cc(N2CCN(Cc3ccnc4c3ccn4CC(=O)N(C)C)C2=O)ccc1OC [CU0033] | 62 nM | 136 nM
CCCCCOc1cc(N2CCCN(Cc3ccnc4c3ccn4CC(=O)N(C)C)C2=O)ccc1OC [CU0035] | 33.5 nM | 30.8 nM
CCCCCOc1cc(N2CCCN(Cc3ccnc4c3ccn4CC(=O)N(C)C)C2=O)ccc1C1CC1 [CU0036] | 25 nM | 121 nM
CCCCCOc1cc(N2CCCN([C@@H](C)c3ccnc4c3ccn4CC(=O)N(C)C)C2=O)ccc1OC [CU0037] | 15.5 nM | 47.1 nM
CCCCCOc1cc(N2CCCN(Cc3ccnc4c3ccn4CC(=O)N3CC[C@@H](OC)C3)C2=O)ccc1OC [CU0041] | 17 nM | 55.2 nM
CCCCCOc1cc(N2CCN(Cc3ccnc4c3ccn4CC(=O)N3CCOCC3)C2=O)ccc1OC [CU0042] | 106 nM | 63.1 nM
CCCCCOc1cc(N2CCCN(Cc3ccnc4c3ccn4CC(=O)N3CCOCC3)C2=O)ccc1OC [CU0043] | 16.5 nM | 29.5 nM
CCCCCOc1cc(N2CCCN(Cc3ccnc4c3ccn4CC(=O)N3CCOCC3)C2=O)ccc1C1CC1 [CU0044] | 35.5 nM | 87.7 nM
CCCCCOc1cc(N2CCCN([C@@H](C)c3ccnc4c3ccn4CC(=O)N3CCOCC3)C2=O)ccc1OC [CU0045] | 26 nM | 32.8 nM
CCCCCOc1cc(N2CCCN(Cc3ccnc4c3ccn4CC(=O)N3CCOC(CCO)C3)C2=O)ccc1OC (centres unmarked) [CU0046] | 15.5 nM | 38.9 nM

Further lines, with some results ahead:

Kd [1] | SMILES | IC50 (Human C5)
18.5 nM | CCCCCOc1cc(N2CCCN(Cc3ccnc4c3ccn4CC(=O)N3CCOC(COC)C3)C2=O)ccc1OC (centres unmarked) [CU0048] | 57.3 nM
21 nM | CCCCCOc1cc(N2CCCN(Cc3ccnc4c3ccn4CC(=O)N3CCOC(C)(COC)C3)C2=O)ccc1OC (centres unmarked) [CU0049] | 44.7 nM
9 nM | CCCCCOc1cc(N2CCCN(Cc3ccnc4c3ccn4CC(=O)N3CCOC(CN(C)C)C3)C2=O)ccc1OC (centres unmarked) [CU0050] | 18 nM
8 nM | CCCCCOc1cc(N2CCCN(Cc3ccnc4c3ccn4CC(=O)N3CCOC(CN4CCCC4)C3)C2=O)ccc1OC (centres unmarked) [CU0051] | 45.9 nM
10.5 nM | CCCCCOc1cc(N2CCCN([C@@H](C)c3ccnc4c3ccn4CC(=O)N3CCCOCC3)C2=O)ccc1OC [CU0055] | 31.2 nM
23 nM | CCCCCOc1cc(N2CCCN(Cc3ccnc4c3ccn4CC(=O)N3CCN(C4CC4)CC3)C2=O)ccc1OC [CU0056] | 48.8 nM
18 nM | CCCCCOc1cc(N2CCCN(Cc3ccnc4c3ccn4CC(=O)N3CCN(CCOC)CC3)C2=O)ccc1OC [CU0057] | 22.4 nM
13.5 nM | CCCCCOc1cc(N2CCCN(Cc3ccnc4c3ccn4CC(=O)N3CCNC(=O)C3)C2=O)ccc1OC [CU0059] | 32.9 nM
14 nM | CCCCCOc1cc(N2CCCN(Cc3ccnc4c3ccn4CC(=O)N3CCN(C)C(=O)C3)C2=O)ccc1OC [CU0060] | 40.3 nM
13 nM | CCCCCOc1cc(N2CCCN(Cc3ccnc4c3ccn4CC(=O)N3CCN(C)C(=O)C3)C2=O)ccc1C1CC1 [CU0061] | 52.3 nM
17.5 nM | CCCCCOc1cc(N2CCCN(Cc3ccnc4c3ccn4CC(=O)N3CC(=O)N(C)C(C)C3)C2=O)ccc1OC (centres unmarked) [CU0062] | 33.4 nM
10.5 nM | CCCCCOc1cc(N2CCCN(Cc3cccc4c3ncn4CC(=O)N3CCN(C(C)=O)CC3)C2=O)ccc1OC [CU0063] | 28.3 nM
394 nM | CCCCCOc1cc(N2CCN(Cc3cccc4c3OCO4)C2=O)ccc1OC [CU0064] | 799 nM
370 nM | CCCCCOc1cc(N2CCCN(Cc3cccc4c3OCO4)C2=O)ccc1OC [CU0065] | 123 nM
2.1 nM | CCCCCOc1cc(N2CCCN(Cc3ccc(CC(=O)N4CCCOCC4)cc3OC)C2=O)ccc1OC [CU0100] | 21 nM
3.4 nM | CCCC(F)(F)COc1cc(N2CCCN(Cc3ccc(CC(=O)N(C)C)cc3OC)C2=O)ccc1OC [CU0111] | 25.2 nM
2.6 nM | CCCC(F)(F)COc1cc(N2CCCN(Cc3ccc(CC(=O)N4CCCOCC4)cc3OC)C2=O)ccc1OC [CU0112] | 25.9 nM
7.8 nM | CCCCCOc1cc(N2CCCN(Cc3ccc(CC(=O)N(C)C)cc3Cl)C2=O)ccc1OC [CU0115] | 27.9 nM
10.3 nM | CCCCCOc1cc(N2CCCN(Cc3ccc(CC(=O)N4CCOCC4)cc3Cl)C2=O)ccc1OC [CU0116] | 23.2 nM
8.3 nM | CCCCCOc1cc(N2CCCN(Cc3ccc(CC(=O)N4CCCOCC4)cc3Cl)C2=O)ccc1OC [CU0117] | 32.5 nM
12.8 nM | CCCCCOc1cc(N2CCCN(Cc3ccc(CC(=O)N4CCCC4)cc3Cl)C2=O)ccc1OC [CU0118] | 35.3 nM
3.6 nM | CCCCCOc1cc(N2CCCN(Cc3ccc(Cc4nnco4)cc3OC)C2=O)ccc1OC [CU0120] | 11.8 nM
27.5 nM | CCCCCOc1cc(N2CCCN(Cc3ccc(CN(CC)CC)cc3OC)C2=O)ccc1OC [CU0121] | 38.9 nM
9.6 nM | CCCCCOc1cc(N2CCCN(Cc3ccc(CCN(CC)CC)cc3OC)C2=O)ccc1OC [CU0122] | 17.1 nM
6.4 nM | CCCCCOc1cc(N2CCCN(Cc3ccc(CCN4CCOCC4)cc3OC)C2=O)ccc1OC [CU0124] | 26 nM
